According to patent US20240279205A1, “NOVEL BENZIMIDAZOLE DERIVATIVE” (Carna Biosciences, Inc., priority 2020, published 2024):
Where a name gives a salt, the structure may show the parent alone.

Columns and labels:
human STING (hSTING) = biological target: T1, human STING (hSTING) (Homo sapiens, UniProt Q86WV6); experiment: Inhibition test of intracellular human STING (hSTING) pathway using SEAP reporter cells (HEK-Blue ISG), stimulation with Compound 3; assay type: cell-based; design: hSTING inhibitory activity: scale not given here; conditions: Compound 3 10 nM stimulation, 21 hours; for IC50: read-out: hSTING inhibitory activity
T1 construct: host or cells: HEK-Blue ISG cells (HEK293-derived SEAP reporter line)
Summary of the method: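 HEK-Blue ISG cells with IRF-inducible SEAP reporter, pretreated 1 h with compound (final 0.1 to 10 μM), then stimulated with Compound 3 (final 10 nM) for 21 h at 37° C. Supernatant SEAP measured colorimetrically; IC50 from log-concentration regression, normalized to stimulated (100%) and unstimulated (0%) controls.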

[1] = tested on: STING activation (IFN-β production in THP-1 cells); experiment: Human IFN-β production inhibition test by cGAMP stimulation in THP-1 cells; assay type: cell-based; design: IFN-β bioinhibitory activity: scale not given here; conditions: 2'3'-cGAMP transfection, 18 hours, IFN-β ELISA; for IC50: Homo sapiens, read-out: IFN-β bioinhibitory activity
Description: Human IFN-β production inhibition test by cGAMP stimulation
The inhibitory activity of test compounds against STING activation was evaluated by measuring the amount of IFN-β produced when human monocytic cell line THP-1 cells were stimulated with the endogenous ligand cGAMP.
After seeding THP-1 cells (ATCC) in a 96-well plate, PMA (Santa Cruz Biotechnology) adjusted to a concentration of 100 nM after addition was added, and incubated at 37° C. in a 5% CO2 incubator. It was cultured overnight (RPMI1640 medium containing 10% FBS, 50 U/mL penicillin/50 μg/mL streptomycin). A test compound solution adjusted to a final concentration of 0.001 to 1 μM was added to each well of this plate and cultured for 1 hour in a CO2 incubator (DMSO final concentration 0.1%). 0.12 μg/well of 2′3′-cGAMP (Invivogen, #tlrl-nacga23) was introduced into the cells by transfection using Lipofectamine2000 (Invitrogen) and cultured in a CO incubator for an additional 18 hours. After collecting the culture supernatant from each well, the amount of human IFN-β produced in the culture supernatant was measured by ELISA using R&D human IFN-β Duoset (R&D Systems).
Assuming that the human IFN-β production amount of the test compound-free and cGAMP-added group is 100%, and the human IFN-β production amount of the test compound-free and cGAMP-free group is 0%, the IC50 value was determined by regression analysis of the inhibitory rate determined from the amount of human IFN-β production at each compound concentration and the concentration of the test compound (logarithm).

T1 sequence (Q86WV6 whole entry H232R): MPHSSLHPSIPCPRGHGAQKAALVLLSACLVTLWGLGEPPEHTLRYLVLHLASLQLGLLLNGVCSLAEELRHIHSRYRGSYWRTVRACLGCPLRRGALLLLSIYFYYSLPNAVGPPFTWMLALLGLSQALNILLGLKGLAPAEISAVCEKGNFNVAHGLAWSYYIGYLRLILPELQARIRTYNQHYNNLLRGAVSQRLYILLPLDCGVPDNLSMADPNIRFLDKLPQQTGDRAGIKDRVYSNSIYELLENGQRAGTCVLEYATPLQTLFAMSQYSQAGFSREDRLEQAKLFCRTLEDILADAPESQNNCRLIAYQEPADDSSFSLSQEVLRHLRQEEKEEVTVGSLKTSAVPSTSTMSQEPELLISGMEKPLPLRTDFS

Row | SMILES | hSTING inhibitory activity (human STING (hSTING)) | IC50 [1] [nM] | IC50 (human STING (hSTING)) [nM] | IFN-β bioinhibitory activity [1]
1 | Fc1ccc2[nH]c(Nc3c[nH]c4ccc(Br)cc34)nc2c1 [Embodiment 33, N-(5-bromo-1H-indol-3-yl)-5-fluoro-1H-benzo[d]imidazol-2-amine] | * * * | 100 to 1000 | – | –
2 | COc1ccc2[nH]cc(Nc3nc4cc(Oc5ccccc5)ccc4[nH]3)c2n1 [Embodiment 36, N-(5-methoxy-1H-pyrrolo[3,2-b]pyridin-3-yl)-5-phenoxy-1H-benzo[d]imidazol-2-amine] | * * | – | – | * *
3 | Cn1c(Nc2c[nH]c3ccc(Cl)nc23)nc2ccc(Oc3ccccc3)cc21 [Embodiment 44, N-(5-chloro-1H-pyrrolo[3,2-b]pyridin-3-yl)-1-methyl-6-phenoxy-1H-benzo[d]imidazol-2-amine] | * * | 100 to 1000 | – | –
4 | Cn1c(Nc2c[nH]c3ccc(Cl)nc23)nc2cc(Oc3ccccc3)ccc21 [Embodiment 45, N-(5-Chloro-1H-pyrrolo[3,2-b]pyridin-3-yl)-1-methyl-5-phenoxy-1H-benzo[d]imidazol-2-amine] | * * | 100 to 1000 | – | –
5 | Cn1c(Nc2c[nH]c3ccc(Cl)nc23)nc2cc(C(F)(F)F)ccc21 [Embodiment 47, N-(5-Chloro-1H-pyrrolo[3,2-b]pyridin-3-yl)-1-methyl-5-(trifluoromethyl)-1H-benzo[d] imidazol-2-amine] | * * | – | – | * *
6 | Cc1ccnc2c(Nc3nc4cc(Oc5ccccc5)ccc4[nH]3)c[nH]c12 [Embodiment 52, N-(7-methyl-1H-pyrrolo[3,2-b]pyridin-3-yl)-5-phenoxy-1H-benzo[d]imidazol-2-amine] | * * | 100 to 1000 | – | –
7 | Cc1ccc2[nH]cc(Nc3nc4cc(Oc5ccccc5)ccc4[nH]3)c2n1 [Embodiment 53, N-(5-methyl-1H-pyrrolo[3,2-b]pyridin-3-yl)-5-phenoxy-1H-benzo[d]imidazol-2-amine] | * * | ≥ 1000 | – | –
8 | c1ccc(Oc2ccc3[nH]c(Nc4c[nH]c5c(-c6ccccc6)ccnc45)nc3c2)cc1 [Embodiment 54, 5-phenoxy-N-(7-phenyl-1H-pyrrolo[3,2-b]pyridin-3-yl)-1H-benzo[d]imidazol-2-amine] | * * | ≥ 1000 | – | –
9 | Cn1c(Nc2c[nH]c3ccc(Cl)cc23)nc2cc(C(F)(F)F)ccc21 [Embodiment 56, N-(5-chloro-1H-indol-3-yl)-1-methyl-5-(trifluoromethyl)-1H-benzo[d]imidazol-2-amine] | * * * | – | – | * * *
10 | C[Si](C)(C)C#Cc1ccc2[nH]c(Nc3c[nH]c4ccc(Br)nc34)nc2c1 [Embodiment 59, N-(5-bromo-1H-pyrrolo[3,2-b]pyridin-3-yl)-5-[(trimethylsilyl)ethynyl]-1H-benzo[d]imidazol-2-amine] | * * * | – | – | * *
11 | Fc1cnc2[nH]cc(Nc3nc4cc(Oc5ccccc5)ccc4[nH]3)c2c1 [Embodiment 72, N-(5-fluoro-1H-pyrrolo[2,3-b]pyridin-3-yl)-5-phenoxy-1H-benzo [d]imidazol-2-amine formate] | * * | 100 to 1000 | – | –
12 | Clc1cnc2[nH]cc(Nc3nc4cc(Oc5ccccc5)ccc4[nH]3)c2c1 [Embodiment 73, N-(5-Chloro-1H-pyrrolo[2,3-b]pyridin-3-yl)-5-phenoxy-1H-benzo[d]imidazol-2-amine formate] | * * * | 100 to 1000 | – | –
13 | Brc1cnc2[nH]cc(Nc3nc4cc(Oc5ccccc5)ccc4[nH]3)c2n1 [Example 21, 2-bromo-N-(5-phenoxy-1H-benzo[d]imidazol-2-yl)-5H-pyrrolo[2,3-b]pyrazin-7-amine] | – | – | ≥ 10000 | –
14 | COC(=O)c1ccc2[nH]cc(Nc3nc4cc(Oc5ccccc5)ccc4[nH]3)c2c1 [Example 22, methyl 3-[(5-phenoxy-1H-benzo[d]imidazol-2-yl)amino]-1H-indole-5-carboxylate] | * * | – | – | –
15 | O=S(=O)(c1ccccc1)c1ccc2[nH]c(Nc3c[nH]c4ccc(Br)cc34)nc2c1 [Example 23, N-(5-bromo-1H-indol-3-yl)-5-(phenylsulfonyl)-1H-benzo[d]imidazol-2-amine] | * * | – | – | –
16 | O=C(c1ccc2[nH]cc(Nc3nc4cc(Oc5ccccc5)ccc4[nH]3)c2c1)N1CCOCC1 [Example 28, morpholino {3-[(5-phenoxy-1H-benzo[d]imidazol-2-yl)amino]-1H-indol-5-yl} methanone] | – | – | ≥ 10000 | –

The next lines start with results.

Row | hSTING inhibitory activity (human STING (hSTING)) | IC50 [1] [nM] | IC50 (human STING (hSTING)) [nM] | SMILES | IFN-β bioinhibitory activity [1]
17 | * * | – | – | Clc1ccc2[nH]c(Nc3c[nH]c4ccc(Br)nc34)nc2c1 [Embodiment 32, N-(5-bromo-1H-pyrrolo[3,2-b]pyridin-3-yl)-5-chloro-1H-benzo[d]imidazol-2-amine] | * *
18 | * * * | 100 to 1000 | – | Clc1ccc2[nH]cc(Nc3nc4cc(Oc5ccccc5)ccc4[nH]3)c2n1 [Embodiment 35, N-(5-chloro-1H-pyrrolo[3,2-b]pyridin-3-yl)-5-phenoxy-1H-benzo[d]imidazol-2-amine] | –
19 | * * | ≥ 1000 | – | Clc1ccnc2c(Nc3nc4cc(Oc5ccccc5)ccc4[nH]3)c[nH]c12 [Embodiment 38, N-(7-chloro-1H-pyrrolo[3,2-b]pyridin-3-yl)-5-phenoxy-1H-benzo[d]imidazol-2-amine] | –
20 | * * * | – | – | FC(F)(F)c1ccc2c(c1)nc(Nc1c[nH]c3ccc(Cl)cc13)n2C1CC1 [Embodiment 57, N-(5-chloro-1H-indol-3-yl)-1-cyclopropyl-5-(trifluoromethyl)-1H-benzo[d]imidazol-2-amine] | * *
21 | * * | 100 to 1000 | – | Cn1c(Nc2c[nH]c3ccc(Cl)nc23)nc2ccc(Oc3ccc(F)cc3)cc21 [Embodiment 58, N-(5-chloro-1H-pyrrolo[3,2-b]pyridin-3-yl)-6-(4-fluorophenoxy)-1-methyl-1H-benzo[d]imidazol-2-amine] | –
22 | * * * | 100 to 1000 | 1000 to 10000 | Brc1ccc2[nH]cc(Nc3nc4cc(-c5ccccc5)ccc4[nH]3)c2n1 [Embodiment 60, N-(5-bromo-1H-pyrrolo[3,2-b]pyridin-3-yl)-5-phenyl-1H-benzo [d]imidazol-2-amine] | –
23 | * * | 100 to 1000 | – | CN(C)c1ccc(Oc2ccc3[nH]c(Nc4c[nH]c5ccc(Br)nc45)nc3c2)cc1 [Embodiment 64, N-(5-bromo-1H-pyrrolo[3,2-b]pyridin-3-yl)-5-[4-(dimethylamino)phenoxy]-1H-benzo[d]imidazol-2-amine] | –
24 | – | – | ≥ 10000 | O=C(O)c1ccc2[nH]cc(Nc3nc4cc(Oc5ccccc5)ccc4[nH]3)c2c1 [Example 27, 3-[(5-phenoxy-1H-benzo[d]imidazol-2-yl)amino]-1H-indole-5-carboxylic acid] | –
25 | – | – | ≥ 10000 | C#CCNC(=O)c1ccc2[nH]cc(Nc3nc4cc(Oc5ccccc5)ccc4[nH]3)c2c1 [Example 29, 3-[(5-phenoxy-1H-benzo[d]imidazol-2-yl)amino]-N-(prop-2-yn-1-yl)-1H-indole-5-carboxamide] | –
26 | * * | – | – | O=C(Nc1ccccc1)c1ccc2[nH]cc(Nc3nc4cc(Oc5ccccc5)ccc4[nH]3)c2c1 [Example 30, 3-[(5-phenoxy-1H-benzo[d]imidazol-2-yl)amino]-N-phenyl-1H-indole-5-carboxamide] | –
